Experimental data published in patent US7888369B2, “Oxazoloisoquinoline derivatives as thrombin receptor antagonists” (Schering Corporation, priority 2005, dated 2011).
Values belong to the compound of their own block, whether it stands above or below them.

Target: T1, thrombin receptor (Homo sapiens, UniProt P25116)
T1 construct: tissue North Jersey Blood Center (East Orange, N.J.); host or cells: platelet membranes prepared from platelet concentrates
T1 sequence (P25116 22-425): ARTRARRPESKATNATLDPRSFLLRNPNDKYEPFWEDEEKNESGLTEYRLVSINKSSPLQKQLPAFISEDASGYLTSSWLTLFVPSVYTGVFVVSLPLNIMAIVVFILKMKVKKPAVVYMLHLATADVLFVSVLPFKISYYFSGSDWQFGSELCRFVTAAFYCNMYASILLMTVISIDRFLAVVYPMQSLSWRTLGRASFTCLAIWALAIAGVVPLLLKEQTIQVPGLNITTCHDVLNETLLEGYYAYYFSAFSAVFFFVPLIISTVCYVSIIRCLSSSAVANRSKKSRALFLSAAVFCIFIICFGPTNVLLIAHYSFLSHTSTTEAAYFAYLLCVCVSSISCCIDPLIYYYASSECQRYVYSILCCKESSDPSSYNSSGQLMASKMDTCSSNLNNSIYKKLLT
Assay: High throughput thrombin receptor radioligand binding assay ([3H]haTRAP, platelet membranes)
Method: In Vitro Testing Procedure for Thrombin Receptor Antagonists:
Preparation of [^3H]ha TRAP
A(pF-F)R(ChA)(hR)(I2—Y)—NH2 (1.03 mg) and 10% Pd/C (5.07 mg) were suspended in DMF (250 μl) and diisopropylethylamine (10 μl). The vessel was attached to the tritium line, frozen in liquid nitrogen and evacuated. Tritium gas (342 mCi) was then added to the flask, which was stirred at room temperature for 2 hours. At the completion of the reaction, the excess tritium was removed and the reacted peptide solution was diluted with DMF (0.5 ml) and filtered to remove the catalyst. The collected DMF solution of the crude peptide was diluted with water and freeze dried to remove the labile tritium. The solid peptide was redissolved in water and the freeze drying process repeated. The tritiated peptide ([^3H]haTRAP) was dissolved in 0.5 ml of 0.1% aqueous TFA and purified by HPLC using the following conditions: column, Vydac™ C18, 25 cm×9.4 mm I.D.; mobile phase, (A) 0.1% TFA in water, (B) 0.1% TFA in CH3CN; gradient, (A/B) from 100/0 to 40/60 over 30 min; flow rate, 5 ml/min; detection, UV at 215 nm. The radiochemical purity of [^3H]haTRAP was 99% as analyzed by HPLC. A batch of 14.9 mCi at a specific activity of 18.4 Ci/mmol was obtained.
Preparation of Platelet Membranes
Platelet membranes were prepared using a modification of the method of Natarajan et al. (Natarajan et al, Int. J. Peptide Protein Res. 45:145-151 (1995)) from 20 units of platelet concentrates obtained from the North Jersey Blood Center (East Orange, N.J.) within 48 hours of collection. All steps were carried out at 4° C. under approved biohazard safety conditions. Platelets were centrifuged at 100×g for 20 minutes at 4° C. to remove red cells. The supernatants were decanted and centrifuged at 3000×g for 15 minutes to pellet platelets. Platelets were re-suspended in 10 mM Tris-HCl, pH 7.5, 150 mM NaCl, 5 mM EDTA, to a total volume of 200 ml and centrifuged at 4400×g for 10 minutes. This step was repeated two additional times. […] Protein concentration was determined by a Lowry assay (Lowry et al., J. Biol. Chem., 193:265-275 (1951)). […]

Thrombin Receptor Antagonist Activity: % inhibition (at 1 μM): 15%
SMILES: O=C1OC[C@@H]2C(/C=C/c3ccc(-c4cccc(F)c4)cn3)c3ccccc3CN12 (single isomer, unassigned) [Compound 13, 10-{2-[5-(3-Fluoro-phenyl)-pyridin-2-yl]-vinyl}-1,5,10,10a-tetrahydro-oxazolo[3,4-b]isoquinolin-3-one]

inhibition at 1 µM (at 1 μM, read-out: Thrombin Receptor Antagonist Activity: % inhibition): 27%
SMILES: O=C1OC[C@@H]2C(/C=C/c3ccc(-c4cccc(F)c4)cn3)c3ccccc3CN12 (single isomer, unassigned) [Compound 12, 10-{2-[5-(3-Fluoro-phenyl)-pyridin-2-yl]-vinyl}-1,5,10,10a-tetrahydro-oxazolo[3,4-b]isoquinolin-3-one]

Ki: 12 nM
SMILES: O=C1OC[C@@H]2C(/C=C/c3ccc(-c4cccc(F)c4)cn3)C3CCCCC3CN12 (stereo partly drawn) [Compound 16]
